# Earlier results, collected in patent US20030049260A1, “Method of improving cognitive function” (priority 2001, published 2003).
# Conditions: for Change in Symbol Digit: max. increase: duration 12 weeks, An J Geriatr Psychiatry 1999;7:221-227
smiles,measurement,setting,value
CNCCC(Oc1ccc(C(F)(F)F)cc1)c1ccccc1 (stereo not drawn) [Fluoxetine],Change in Symbol Digit: max. increase,,10% increase
CNC1(c2ccccc2Cl)CCCCC1=O (stereo not drawn) [Ketamine],Change in Symbol Digit: decline,in vivo,5-10% decline
CN[C@@H](C)Cc1ccccc1 [Methamphetamine],Change in Symbol Digit: reduction in drug group as compared to a control group,in vivo,Significant 14%
CC(C)NCC(O)COc1cccc2ccccc12 (stereo not drawn) [Propranolol],Change in Symbol Digit: decline as compared to placebo,"duration 8 hours, Br. J. Clin Pharmac 1984;17:31-36",10-15% decline
CN[C@H]1CC[C@@H](c2ccc(Cl)c(Cl)c2)c2ccccc21 [Sertraline],Change in Symbol Digit: max. increase,,21% increase
Cc1nnc2n1-c1ccc(Cl)cc1C(c1ccccc1Cl)=NC2 [Triazolam],Change in Symbol Digit: reduction,in vivo,10-20% reduction
